Source: patent US8822449B2, “Substituted aminoindanes and analogs thereof, and the pharmaceutical use thereof” (Sanofi, priority 2008, dated 2014)

Molecular target: T1, sodium-proton exchanger of subtype 3 (NHE3) (Homo sapiens, UniProt P48764)
T1 construct: expressed in transfected cells
T1 sequence (P48764 26-834): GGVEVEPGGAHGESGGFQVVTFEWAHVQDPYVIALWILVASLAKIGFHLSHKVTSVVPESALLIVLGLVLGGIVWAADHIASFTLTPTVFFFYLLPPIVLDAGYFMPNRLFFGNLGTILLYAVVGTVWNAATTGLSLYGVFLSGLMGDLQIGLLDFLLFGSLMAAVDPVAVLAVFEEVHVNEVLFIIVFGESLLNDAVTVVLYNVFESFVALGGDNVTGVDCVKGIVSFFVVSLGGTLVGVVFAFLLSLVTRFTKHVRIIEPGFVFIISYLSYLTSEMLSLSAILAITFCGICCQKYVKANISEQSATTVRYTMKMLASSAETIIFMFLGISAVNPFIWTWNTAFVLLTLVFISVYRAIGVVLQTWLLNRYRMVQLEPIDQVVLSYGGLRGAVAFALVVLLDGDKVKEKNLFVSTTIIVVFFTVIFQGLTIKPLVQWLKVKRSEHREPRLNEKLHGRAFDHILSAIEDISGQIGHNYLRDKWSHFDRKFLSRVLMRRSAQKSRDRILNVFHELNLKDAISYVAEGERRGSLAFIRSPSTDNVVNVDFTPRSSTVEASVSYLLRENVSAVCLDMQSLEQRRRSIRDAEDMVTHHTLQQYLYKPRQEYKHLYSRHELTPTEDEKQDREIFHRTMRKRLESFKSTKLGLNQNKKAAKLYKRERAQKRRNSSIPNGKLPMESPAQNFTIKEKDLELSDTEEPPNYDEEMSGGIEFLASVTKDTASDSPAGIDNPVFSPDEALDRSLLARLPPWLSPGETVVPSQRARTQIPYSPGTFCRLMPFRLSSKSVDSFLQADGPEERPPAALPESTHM
Assay: Recovery of intracellular pH (pHi) after acidification in LAP1 cells stably expressing NHE3 (BCECF fluorescence, FLIPR)
Format: cell-based
Conditions: LAP1 cells stably expressing NHE3; pH recovery after acidification; range 1 is % inhibition at 10 μM; read-out: Activity range (inhibitory effect on NHE3)

| SMILES | IC50 | inhibition at 10 µM |
| --- | --- | --- |
| O=C(O)COC(=O)Nc1ccc(O[C@H]2c3cc(Cl)cc(Cl)c3C[C@@H]2N2CC[C@@H](O)C2)c(Cl)c1 [Example 236, {3-chloro-4-[(1S,2S)-4,6-dichloro-2-((R)-3-hydroxypyrrolidin-1-yl)indan-1-yloxy]phenylcarbamoyloxy}acetic acid] | < 1 µM |  |
| CCc1nc(C)cn1-c1ccc(F)c(O[C@H]2c3cc(Cl)cc(Cl)c3C[C@@H]2N2CC[C@@H](O)C2)c1 [Example 725, (R)-1-{trans-(1S,2S)-4,6-Dichloro-1-[5-(2-ethyl-4-methyl-imidazol-1-yl)-2-fluoro-phenoxy]-indan-2-yl}-pyrrolidin-3-ol] | 1 to 10 µM |  |
| CC(=O)Nc1cccc(O[C@H]2c3ccc(Cl)cc3C[C@@H]2N2CCCC2)c1 (racemic) [Example 655, N-[3-(rac-trans-(1,2)-5-chloro-2-pyrrolidin-1-ylindan-1-yloxy)phenyl]acetamide] | 1 to 10 µM |  |
| Cc1nnc(C)n1-c1ccc(O[C@@H]2c3ccccc3C[C@@]2(C)N2CCCC2)c(F)c1 (racemic) [Example 494, 4-[3-fluoro-4-(-2-methyl-2-pyrrolidin-1-ylindan-1-yloxy)phenyl]-3,5-dimethyl-4H-[1,2,4]triazole] | 1 to 10 µM |  |
| N#Cc1ccc(O[C@H]2c3cc(Cl)cc(Cl)c3C[C@@H]2N2CC[C@H](O)C2)c(F)c1 [Example 555, 4-[trans-(1S,2S)-4,6-dichloro-2-((S)-3-hydroxypyrrolidin-1-yl)indan-1-yloxy]-3-fluorobenzonitrile] | 1 to 10 µM |  |
| CN1CCN([C@H]2Cc3c(Cl)cc(Cl)cc3[C@@H]2Oc2ccc(-n3ccnc3)cc2)CC1 [Example 297, 1-[trans-(1S,2S)-4,6-dichloro-1-(4-imidazol-1-ylphenoxy)indan-2-yl]-4-methylpiperazine] |  | 20 to 50% |
| N[C@@H]1CCCN([C@@H]2Cc3ccccc3[C@H]2Oc2ccc(N3CCNCC3)cc2)C1 (racemic) [Example 76, (R)-1-[rac-trans-(1,2)-1-(4-piperazin-1-ylphenoxy)indan-2-yl]piperidin-3-ylamine] | 1 to 10 µM |  |
| Cc1nn(-c2ccc(O[C@H]3c4cc(Cl)cc(Cl)c4C[C@@H]3N3CC[C@@H](O)C3)cc2)c(=O)o1 [Example 733, 3-{4-[trans-(1S,2S)-4,6-Dichloro-2-((R)-3-hydroxy-pyrrolidin-1-yl)-indan-1-yloxy]-phenyl}-5-methyl-3H-[1,3,4]oxadiazol-2-one] | 1 to 10 µM |  |
| CN1CCN(c2ccc(O[C@H]3c4cc(Cl)cc(Cl)c4C[C@@H]3N3CC[C@@H](O)C3)c(F)c2)C1=O [Example 330, 1-{4-[trans-(1S,2S)-4,6-dichloro-2-((R)-3-hydroxypyrrolidin-1-yl)indan-1-yloxy]-3-fluorophenyl}-3-methylimidazolidin-2-one] | < 1 µM |  |
| Cc1nnc(C)n1-c1ccc(O[C@H]2c3cc(Cl)cc(Cl)c3C[C@@H]2N2CCCN(C)CC2)cc1 [Example 349, 1-{trans-(1S,2S)-4,6-dichloro-1-[4-(3,5-dimethyl-[1,2,4]triazol-4-yl)phenoxy]indan-2-yl}-4-methyl-[1,4]diazepane] | < 1 µM |  |
| N#Cc1ccc(O[C@H]2c3cc(Cl)cc(F)c3C[C@@H]2N2CC[C@@H](O)C2)c(F)c1 [Example 557, 4-[trans-(1S,2S)-6-chloro-4-fluoro-2-((R)-3-hydroxypyrrolidin-1-yl)indan-1-yloxy]-3-fluorobenzonitrile] | 1 to 10 µM |  |
| Cn1ccn(-c2cc(O[C@H]3c4cc(Cl)cc(Cl)c4C[C@@H]3N3CC[C@@H](O)C3)ccc2F)c1=O [Example 745, 1-{5-[trans-(1S,2S)-4,6-Dichloro-2-((R)-3-hydroxy-pyrrolidin-1-yl)-indan-1-yloxy]-2-fluoro-phenyl}-3-methyl-1,3-dihydro-imidazol-2-one] |  | 20 to 50% |
| CN1CCN(C(=O)c2ccc(O[C@H]3c4ccccc4C[C@@H]3N3CCCC3)cc2)CC1 (racemic) [Example 22, (4-methylpiperazin-1-yl)-[4-(rac-trans-(1,2)-2-pyrrolidin-1-ylindan-1-yloxy)phenyl]methanone] | 1 to 10 µM |  |
| NCC1CCN([C@@H]2Cc3ccccc3[C@H]2Oc2cccc(N3CCNCC3)c2)C1 (mixture of isomers) [Example 617, C-{1-[rac-trans-(1,2)-1-(3-piperazin-1-ylphenoxy)indan-2-yl]pyrrolidin-3-yl}methylamine] | 1 to 10 µM |  |
| CN1CCCN([C@H]2Cc3c(Cl)cc(Cl)cc3[C@@H]2Oc2ccc(C#N)cc2F)CC1 [Example 556, 4-[trans-(1S,2S)-4,6-dichloro-2-(4-methyl-[1,4]diazepan-1-yl)indan-1-yloxy]-3-fluorobenzonitrile] | < 1 µM |  |

The remaining lines, values ahead:

| IC50 | inhibition at 10 µM | SMILES |
| --- | --- | --- |
| 1 to 10 µM |  | CS(=O)(=O)Nc1ccc(C(=O)O[C@H]2c3ccccc3C[C@@H]2N2CCCC2)c(Cl)c1 [Example 394, 2-chloro-4-methanesulfonylaminobenzoic acid (1S,2S)-2-pyrrolidin-1-ylindan-1-yl ester] |
| 1 to 10 µM |  | CCN(CC)[C@@H]1Cc2ccccc2[C@H]1Oc1ccc(S(N)(=O)=O)c(Cl)c1Cl (racemic) [Example 355, 2,3-dichloro-4-(rac-trans-(1,2)-2-diethylaminoindan-1-yloxy)benzenesulfonamide] |
| 1 to 10 µM |  | CC(=O)Nc1cccc(O[C@@H]2c3ccccc3C[C@H]2N2CCC(CN)C2)c1 (mixture of isomers) [Example 686, N-{3-[rac-trans-(1,2)-2-(3-aminomethylpyrrolidin-1-yl)indan-1-yloxy]phenyl}acetamide] |
|  | 20 to 50% | Cc1ccc(O[C@H]2c3ccccc3CC[C@@H]2N2CCC[C@@H](N)C2)c(Cl)c1 (racemic) [Example 38, (R)-1-[rac-trans-(1,2)-1-(2-chloro-4-methylphenoxy)-1,2,3,4-tetrahydronaphthalen-2-yl]piperidin-3-ylamine] |
| 1 to 10 µM |  | O=S(=O)(NCCC(F)(F)F)c1ccc(O[C@H]2c3ccccc3C[C@@H]2N2CCCC2)cc1 (racemic) [Example 470, 4-(rac-trans-(1,2)-2-pyrrolidin-1-ylindan-1-yloxy)-N-(3,3,3-trifluoropropyl)benzenesulfonamide] |
|  | 20 to 50% | N#Cc1ccc(O[C@H]2c3ccccc3CC[C@@H]2N2CCC[C@H](N)C2)cc1Cl (racemic) [Example 529, 4-[rac-trans-(1,2)-2-((S)-3-aminopiperidin-1-yl)-1,2,3,4-tetrahydronaphthalen-1-yloxy]-2-chlorobenzonitrile] |
| < 1 µM |  | CC(=O)Nc1cccc(O[C@H]2c3ccccc3C[C@@H]2N2CCCCC2)c1 [Example 663, N-[3-(trans-(1S,2S)-2-piperidin-1-ylindan-1-yloxy)phenyl]acetamide] |
|  | 20 to 50% | CS(=O)(=O)c1ccc(O[C@H]2c3cc(Cl)cc(Cl)c3C[C@@H]2N2CCC(F)(F)CC2)cc1 [Example 250, 1-[(1S,2S)-4,6-dichloro-1-(4-methanesulfonylphenoxy)indan-2-yl]-4,4-difluoropiperidine] |
| 1 to 10 µM |  | c1ccc2c(c1)C[C@@H](N1C[C@H]3CNC[C@H]3C1)[C@@H]2Oc1ccc2cc[nH]c2c1 (racemic) [Example 587, 6-[rac-trans-(1,2)-2-(Hexahydropyrrolo[3,4-c]pyrrol-2-yl)indan-1-yloxy]-1H-indole] |
| 1 to 10 µM |  | Cc1cc(F)ccc1O[C@@H]1c2ccccc2C[C@H]1N1C[C@H]2CNC[C@H]2C1 (racemic) [Example 16, 2-[rac-trans-(1,2)-1-(4-fluoro-2-methylphenoxy)indan-2-yl]octahydropyrrolo[3,4-c]pyrrole] |
| 1 to 10 µM |  | CCN(CC)[C@@H]1Cc2ccccc2[C@H]1Oc1cccc(NC(N)=O)c1 (racemic) [Example 212, [3-(rac-trans-(1,2)-2-diethylaminoindan-1-yloxy)phenyl]-urea] |
| < 1 µM |  | O=c1[nH]ccn1-c1cccc(O[C@@H]2c3ccccc3C[C@H]2N2CCCC2)c1 (racemic) [Example 254, 1-[3-(rac-trans-(1,2)-2-pyrrolidin-1-ylindan-1-yloxy)phenyl]-1,3-dihydroimidazol-2-one] |
|  | 20 to 50% | N#Cc1ccc(O[C@H]2c3ccccc3CC[C@@H]2N2CCC[C@H](N)C2)c([N+](=O)[O-])c1 (racemic) [Example 534, 4-[rac-trans-(1,2)-2-((S)-3-aminopiperidin-1-yl)-1,2,3,4-tetrahydronaphthalen-1-yloxy]-3-nitrobenzonitrile] |
| 1 to 10 µM |  | CS(=O)(=O)c1ccc(O[C@H]2c3cccc(F)c3C[C@@H]2N2CCCC2)cc1 (racemic) [Example 285, 1-[rac-trans-(1,2)-4-fluoro-1-(4-methanesulfonylphenoxy)indan-2-yl]pyrrolidine] |
|  | 20 to 50% | COc1ccc(C)cc1O[C@H]1c2ccccc2CC[C@@H]1N1CCC[C@H](N)C1 (racemic) [Example 157, (S)-1-[rac-trans-(1,2)-1-(2-methoxy-5-methylphenoxy)-1,2,3,4-tetrahydronaphthalen-2-yl]piperidin-3-ylamine] |
